# Measurements from US6030960A, “Method of treating hepatitis virus infections” (priority 1998, dated 2000).
# Values joined by “and” are separate entries in the source; they are usually repeats but may differ in a detail not shown here. Equal values may be shown once. “Also recorded” adds a separate entry of the source.
# What was measured:
# Friend-Leukemia virus = assay: Inhibition of retrovirus-induced splenomegaly in Friend-Leukemia virus infected mice (Table 9); assay type: in vivo
# Experimental: Mice were infected I.P. with Friend-Leukemia virus and not treated or treated I.P. with daily doses of phospholipid. After 14 days infection and treatment, the mice were sacrificed, the spleens were removed and weighed to determine the percentage, of control splenomegaly. […] Even a single dose of 25 mg/kg CP-51 inhibited splenomegaly by 36%.
# [1] = tested on: mouse precursor erythrocyte (CFU-E); assay: Cytotoxicity: inhibition of mouse precursor erythrocyte (CFU-E) colony formation; assay type: cell-based; settings: Mus musculus, Erythrocyte, read-out: inhibitory concentration 50% for colony formation (IC50)
# Experimental: CP-51 and AZT were assayed for cytotoxicity by inhibition of mouse precursor erythrocyte (CFU-E) and granulocyte/macrophage (CFU-GM) cell colony formation.
# [2] = tested on: granulocyte/macrophage (CFU-GM); assay: Cytotoxicity: inhibition of mouse granulocyte/macrophage (CFU-GM) colony formation; assay type: cell-based; settings: read-out: inhibitory concentration 50% for colony formation (IC50)
# Experimental: CP-51 and AZT were assayed for cytotoxicity by inhibition of mouse precursor erythrocyte (CFU-E) and granulocyte/macrophage (CFU-GM) cell colony formation. Mouse bone marrow precursor cells were suspended in soft-agar-RPMI-1640 medium supplmented with cell growth factors and serial concentrations of alkyl lipid.
# Hepatitis B virus [3] = assay: Effect of alkyl lipids on HBV replication in HBV persistently infected human HEP G2 cells (Table 6); assay type: cell-based; settings: for Intracellular HBV DNA, Mono (episomal 3.2-3.8 Kb HBV genomes) / Intracellular HBV DNA, RI (replication intermediates): nine days
# Experimental: Cells were treated with a particular compound for nine days at 37° C. Analysis of intracellular HEIV DNA was done 24 hours following the ninth day of treatment. […] The levels of integrated HBV DNA in each cellular DNA preparation were used to calculate the levels of episomal 3.2-3.8 Kb HBV genomes (Mono) and HBV DNA replication intermediates (RI). A zero value indicates an undetectable level of HBV virion DNA. The sensitivity cut-off was 0.1 pg DNA/ml of culture medium.
# [4] = Cytotoxicity of alkyl lipids, neutral red dye uptake (Table 1); assay type: cell-based; settings: human, hep-g2 cells
# Source text: (§1) Initially, evaluations of the alkyl lipids were done to determine whether the compounds were cytotoxic to the cells at concentrations having anti-HBV activity. The assay methodology is szt forth in Korba and Germ, Antiviral Res., 19, 55-70 (1992), incorporated by reference herein. Briefly, these cell cytotoxicity evaluations were done in 96-well plates seeded with HEP-G2 cell monolayers. The hepatoblastoma cell line HEP-G2 transfected with a plasmid carrying the gene that confers resistance to […] and four 5'-3' tandem copies of the Hepatitis B virus genome was obtained from Dr. George Acs. Proc. Natl. Acad. Sci. USA, 84, 1005-1009 (1987). Serial concentrations of compound were added to the RPMI-1640 growth medium and the growth medium was added to the 96-well plates containing the cell monolayers. The cells were incubated for a total of nine days at 37° C. The compound-containing medium was periodically replaced. Each compound was tested at four serial concentrations in triplicate. After nine days of treatment and incubation, 0.01% neutral red dye (Sigma, Inc.) was added to the overlay medium. Cell cytotoxicity was quantitated by measuring the average A510. Values in Table 1 represent the percentage of average A510 values (±standard deviation) relative to nine non-treated control wells.
# Hepatitis B virus [5] = assay: Effect on synthesis of antigen markers in persistently infected human HEP G2 cell cultures (Table 7); assay type: cell-based; settings: for activity at 10 µM: Hepatitis B virus, HepG2, 216 h
# Experimental: Cells were treated with compound for nine days at 37° C. The overlay medium was harvested to measure levels of HBsAg, HBeAg and virion DNA. HBsAg and HBeAg were assayed by EIA (Abbott Laboratories). Virion DNA levels were measured as described in section B above.
# [6] = tested on: HEP G2 cells persistently infected with HBV; assay: Cytotoxicity in HBV persistently infected human HEP G2 cells, neutral red dye uptake (Table 5); assay type: cell-based
# Source text: as §1
# (§2) An analysis was periormed to determine the cytotoxicity of the following compounds in human HEP-G2 cells persistently infected with HBV: CP-51, CP-49, CP-9, CP-126, lyso PAF and CP-7. 2'-3'-Dideoxycytidine (ddC) was used as a control in this cytotoxicity analysis. The toxicity analyses were performed in 96-well flat bottomed tissue culture plates following the same procedure set forth in Example 6 above. Each compound was tested at four concentrations, each in triplicate cultures. Uptake of neutral red dye was used to determine the relative level of toxicity. The absorbance of internalized dye at […] (A510) was used for the quantitative analysis.
# (§3) Values are presented as a percentage of the average A510 values (± standard deviations) in ninz separate cultures of untreated cells maintained on the same 96-well plate as the test compounds. The percentage of dye uptake in the nine control cultures was 100±1.
# [7] = as above; assay type: cell-based; settings: human, hep-g2 cells, % of Control Neutral Red Dye Uptake
# Source text: as §1, §2, §3
# Hepatitis B virus [8] = assay: Anti-hepatitis B virus activity in HEP-G2 cells persistently infected with HBV (Table 2); assay type: cell-based; settings: for activity at 10 µM: Hepatitis B virus, HepG2, 216 h
# Experimental: HEP-G2 cells persistently infected with HBV were treated daily with fresh D-MEM containing 20% FBS and 10 μM compound. After 9 days incubation and treatment, the overlay medium was harvested to assay the quantity of Hepatitis B virus s antigen (HBsAg) and HBeAg by EIA (Abbott Laboratories). The overlay medium was diluted to levels of antigen in the linear range of the assay. Standard curves using dilutions of positive HBsAg and HBeAg controls were included in each assay. Virion DNA was assayed using the method set forth in Korba and Gerin, Antiviral Res., 19, 5,5-70 (1992), incorporated by reference herein. HBV DNA was extracted from the overlay medium containing virus particles and analyzed by a slot-blot hybridization technique using ^32 P-labelled 3.2 Kb Eco R1 HBV DNA fragment by comparisons to HBV standards present on nitrocellulose filters using an AMBIS beta scanner. EC90 values (90% effective concentration, i.e., drug concentration which induces a 90% decrease in the levels of HBV DNA replication intermediates in treated versus control cells) were calculated by linear regression analysis. The relative levels of HBsAg, HBeAg and virion DNA were calulated as a percentage of the average levels obtained from the untreated controls.
compound,measurement,setting,value
"Cc1cn([C@H]2C[C@H](N=[N+]=[N-])[C@@H](CO)O2)c(=O)[nH]c1=O [AZT, 3'-azido-3'deoxythymidine, reference compound]",inhibition of retrovirus-induced splenomegaly,Friend-Leukemia virus; 12.5 mg/kg/day intraperitoneally,10%
same,% of Control Splenomegaly,"Friend-Leukemia virus; 12.5 mg/kg/day, daily treatment",10 % of Control
same,IC50,[1],0.43 µg/mL
same,IC50,[2],0.27 µg/mL
"CCCCCCCCCCCCCCCC(=O)NCC(COP(=O)([O-])OCC[N+](C)(C)C)OCC (racemic) [CP-49, rac-3-hexadecanamido-2-ethoxy-1-propylphosphocholine]",HBV Virion DNA,"Hepatitis B virus [3]; 0.1 μM, Day 0",71 pg/ml Culture Medium and 55 pg/ml Culture Medium and 72 pg/ml Culture Medium and 62 pg/ml Culture Medium
same,HBV Virion DNA,"Hepatitis B virus [3]; 0.1 μM, Day 3",72 pg/ml Culture Medium and 56 pg/ml Culture Medium and 88 pg/ml Culture Medium and 75 pg/ml Culture Medium
same,HBV Virion DNA,"Hepatitis B virus [3]; 0.1 μM, Day 6",62 pg/ml Culture Medium and 69 pg/ml Culture Medium and 55 pg/ml Culture Medium
same,HBV Virion DNA,"Hepatitis B virus [3]; 0.1 μM, Day 9",75 pg/ml Culture Medium and 65 pg/ml Culture Medium and 77 pg/ml Culture Medium and 57 pg/ml Culture Medium
same,"Intracellular HBV DNA, Mono (episomal 3.2-3.8 Kb HBV genomes)",Hepatitis B virus [3]; 0.1 μM,2.2 pg/μg Cell DNA and 2.3 pg/μg Cell DNA and 2.5 pg/μg Cell DNA and 2.6 pg/μg Cell DNA
same,"Intracellular HBV DNA, RI (replication intermediates)",Hepatitis B virus [3]; 0.1 μM,60 pg/μg Cell DNA and 61 pg/μg Cell DNA and 74 pg/μg Cell DNA and 79 pg/μg Cell DNA
same,HBV Virion DNA,"Hepatitis B virus [3]; 1 μM, Day 0",56 pg/ml Culture Medium and 51 pg/ml Culture Medium and 66 pg/ml Culture Medium and 79 pg/ml Culture Medium
same,HBV Virion DNA,"Hepatitis B virus [3]; 1 μM, Day 3",56 pg/ml Culture Medium and 58 pg/ml Culture Medium and 60 pg/ml Culture Medium and 68 pg/ml Culture Medium
same,HBV Virion DNA,"Hepatitis B virus [3]; 1 μM, Day 6",38 pg/ml Culture Medium and 41 pg/ml Culture Medium and 43 pg/ml Culture Medium and 44 pg/ml Culture Medium
same,HBV Virion DNA,"Hepatitis B virus [3]; 1 μM, Day 9",10 pg/ml Culture Medium and 13 pg/ml Culture Medium and 11 pg/ml Culture Medium and 18 pg/ml Culture Medium
same,"Intracellular HBV DNA, Mono (episomal 3.2-3.8 Kb HBV genomes)",Hepatitis B virus [3]; 1 μM,2.3 pg/μg Cell DNA and 2.4 pg/μg Cell DNA and 2.2 pg/μg Cell DNA and 2.1 pg/μg Cell DNA
same,"Intracellular HBV DNA, RI (replication intermediates)",Hepatitis B virus [3]; 1 μM,24 pg/μg Cell DNA and 20 pg/μg Cell DNA and 25 pg/μg Cell DNA and 30 pg/μg Cell DNA
same,HBV Virion DNA,"Hepatitis B virus [3]; 10 μM, Day 0",73 pg/ml Culture Medium and 53 pg/ml Culture Medium and 56 pg/ml Culture Medium and 77 pg/ml Culture Medium
same,HBV Virion DNA,"Hepatitis B virus [3]; 10 μM, Day 3",49 pg/ml Culture Medium and 55 pg/ml Culture Medium and 57 pg/ml Culture Medium and 50 pg/ml Culture Medium
same,HBV Virion DNA,"Hepatitis B virus [3]; 10 μM, Day 6",21 pg/ml Culture Medium and 22 pg/ml Culture Medium and 19 pg/ml Culture Medium and 24 pg/ml Culture Medium
same,"Intracellular HBV DNA, Mono (episomal 3.2-3.8 Kb HBV genomes)",Hepatitis B virus [3]; 10 μM,2.6 pg/μg Cell DNA and 2.4 pg/μg Cell DNA and 2.2 pg/μg Cell DNA and 2.7 pg/μg Cell DNA
same,"Intracellular HBV DNA, RI (replication intermediates)",Hepatitis B virus [3]; 10 μM,9 pg/μg Cell DNA and 8 pg/μg Cell DNA and 6 pg/μg Cell DNA
same,inhibition of HBV virion DNA and intracellular HBV RI DNA levels,"Hepatitis B virus [3]; in words, versus ddC",markedly inhibited; also recorded: substantially inhibited
same,"viability at 216 h, 3 µM","[4]; 3 μM, nine days, read-out: % of Control Neutral Red Dye Uptake",99 ± 3%
same,"viability at 216 h, 10 µM","[4]; 10 μM, nine days, read-out: % of Control Neutral Red Dye Uptake",99 ± 4%
same,"viability at 216 h, 30 µM","[4]; 30 μM, nine days, read-out: % of Control Neutral Red Dye Uptake",60 ± 4%
same,"cytotoxicity at 216 h, 30 µM","[4]; 30 μM, read-out: inhibition of neutral red dye uptake",40%
same,"viability at 216 h, 100 µM","[4]; 100 μM, nine days, read-out: % of Control Neutral Red Dye Uptake",29 ± 1%
same,Relative Level of HBeAg,"Hepatitis B virus [5]; 10 μM, nine days, 12960 min",26 % of Untreated Control
same,Relative Level of HBsAg,"Hepatitis B virus [5]; 10 μM, nine days, 12960 min",113 % of Untreated Control
same,Relative Level of Virion DNA,"Hepatitis B virus [5]; 10 μM, nine days, 12960 min",1 % of Untreated Control
same,activity at 10 µM,"Hepatitis B virus [5]; read-out: Relative Level of HBeAg, 10 μM, nine days",33%
same,activity at 10 µM,"Hepatitis B virus [5]; read-out: Relative Level of HBsAg, 10 μM, nine days",116%
same,activity at 10 µM,"Hepatitis B virus [5]; read-out: Relative Level of Virion DNA, 10 μM, nine days",1%
same,effect on HBsAg levels released into the culture medium,Hepatitis B virus [5]; in words,None of the compounds tested
same,reduction in HBeAg and virion DNA levels,Hepatitis B virus [5]; in words,caused a reduction; also recorded: most active compounds in suppressing HBeAg and virion DNA levels
same,Cell toxicity (greater than 50% depression of dye uptake),[6]; at concentrations with strong or moderate antiviral activity,did not occur
same,% of Control Neutral Red Dye Uptake,"[6]; human, hep-g2 cells, 216 h, 100 µM",29 ± 1 % of Control
same,"viability at 216 h, 3 µM",[7],99 ± 3%
same,"viability at 216 h, 10 µM",[7],97 ± 2%
same,"viability at 216 h, 100 µM",[7],45 ± 4%
same,activity against HBV-induced virion DNA and HBeAg syntheses,"Hepatitis B virus [8]; 10 μM, in words",potent inhibitory activity
same,activity at 10 µM,Hepatitis B virus [8]; read-out: Relative Level of HBeAg,30%
same,activity at 10 µM,Hepatitis B virus [8]; read-out: Relative Level of HBsAg,115%
same,activity at 10 µM,Hepatitis B virus [8]; read-out: Relative Level of Virion DNA,1%
